# Laboratory results as given in patent US9820977B2, “Systemic treatment of blood-sucking and blood-consuming parasites by oral administration of a parasiticidal agent” (priority 2008, dated 2017).
# Values joined by “and” are separate entries in the source; they are usually repeats but may differ in a detail not shown here. Identical values can stand only once.
# Experiments:
# [1] = given orally to control fleas; cited from earlier work
# [2] = tested on: Ctenocephalides felis; experiment: Flea infestation on dogs, oral dosing, pan and comb counts; assay type: in vivo; conditions: for Mean Efficacy / 1 hour pan counts / 3 hour pan counts / Comb Count Day 1 / # Live Fleas Removed / 4 hour pan counts / 6 hour pan counts / Efficacy, Comb Count Day 2 (reinfested) / Efficacy, Comb Count Day 5 (reinfested) / Comb Count Day 2 (reinfested) / Comb Count Day 5 (reinfested) / Efficacy, Comb Count Day 1 / Average 1 hour pan counts / Average 3 hour pan counts: dogs; for Mean Efficacy / Efficacy, Comb Count Day 2 (reinfested) / Efficacy, Comb Count Day 5 (reinfested) / Efficacy, Comb Count Day 1: fleas
# Method: Flea Species: Ctenocephalides felis
# Number: ˜100 unfed adults per dog per infestation with a sex ratio of ˜50/50
# (§1) Species/Strain/Source: Dog/beagles/Stillmeadow, Inc. dog colony
# (§2) Body weights were recorded during the pretest period. Six dogs were selected for study, weighed and randomly assigned to two groups of three and infested with either 100 fleas or 50 ticks. For the flea study whose results are shown in Table 3, repeat 100 flea infestations were performed on Days 2 and 5, without additional dosing. For all studies, the Group I dogs served as untreated controls. All animals except those in Group II of the study whose results are reported in Table 1 were dosed orally with the test article in gelatin capsules. The Group II, Table 1 animals received 5 mg of imidacloprid active in a chewable drug delivery vehicle.
# (§3) For blood collections, drawn blood was collected into lavender top Vacutainer® tubes. The tubes were centrifuged and plasma was drawn off and frozen at approximately −20° C. pending possible future shipment to the sponsor for analysis of levels of test article in the plasma. Comb and pan counts were conducted as noted in the Tables, following dosing. The number of live fleas and ticks removed during the comb counts was recorded as were, where noted in the Tables, dead tick counts.
# [3] = tested on: Rhipicephalus sanguineus; experiment: Tick infestation on dogs, oral dosing, tick counts; assay type: in vivo; conditions: for Attached Dead Day 2 / Dead Attached Day 6 / Dead Free Day 6 / Live Attached Day 6 / Live Free Day 6 / Ticks Removed Day 2 / Mean Efficacy / Efficacy / Dead Ticks / Live Ticks / Comb Count Day 3 Dead / Comb Count Day 3 Live / Hand Count Day 2: dogs; for Mean Efficacy / Efficacy / Comb Count Day 3 Dead / Comb Count Day 3 Live / Hand Count Day 2: ticks; for Efficacy: Day 6
# Method: Tick Species: Rhipicephalus sanguineus
# Number: ˜50 unfed adults per dog per infestation (˜25 male and ˜25 females)
# as §1, §2, §3
# [4] = tested on: ticks; conditions: given topically, imidacloprid alone; cited from earlier work
# [5] = oral 0.5 mg/kg, individual animals, 0.5 mg/kg
# [6] = oral 1.0 mg/kg, individual animals, 1 mg/kg
# [7] = oral 3.0 mg/kg single dose, group Mean
# [8] = oral 3.0 mg/kg single dose, individual animals, 3 mg/kg
# [9] = oral 3.0 mg/kg, individual animals, 3 mg/kg
# [10] = oral 6.0 mg/kg single dose, group Mean
# [11] = oral 6.0 mg/kg, individual animals, 6 mg/kg
# [12] = oral 10.0 mg/kg single dose, group Mean
# [13] = oral 10.0 mg/kg, individual animals, 10 mg/kg
# [14] = oral 3 mg/kg, individual animals, 3 mg/kg
# [15] = oral 10 mg/kg, individual animals, 10 mg/kg
# [16] = oral 15 mg/kg, Day 1, group Mean
# [17] = oral 15 mg/kg, Day 1, individual animals, 15 mg/kg
# [18] = oral 22 mg/kg, Day 1, group Mean
# [19] = oral 22 mg/kg, Day 1, individual animals, 22 mg/kg
# [20] = oral 30 mg/kg, Day 1, group Mean
# [21] = oral 30 mg/kg, Day 1, individual animals, 30 mg/kg
# [22] = oral 30 mg/kg, individual animals, 30 mg/kg
smiles,measurement,setting,value
"N#Cc1nn(-c2c(Cl)cc(C(F)(F)F)cc2Cl)c(N)c1[S+]([O-])C(F)(F)F (centres unmarked) [Fipronil, 5-amino-1-[2,6-dichloro-4-(trifluoromethyl)phenyl]-4-[(trifluoromethyl)sulfinyl]-1H-pyrazole-3-carbonitrile]",emesis,[1],known to cause emesis
"O=[N+]([O-])N=C1NCCN1Cc1ccc(Cl)nc1 [Imidacloprid, 1-[(6-chloro-3-pyridinyl)methyl]-N-nitro-2-imidazolidinimine]",Mean Efficacy,"[2]; oral 0.25 mg/kg, Day 1",100.0
same,1 hour pan counts,"[2]; oral 0.25 mg/kg, group Mean",0.0
same,3 hour pan counts,"[2]; oral 0.25 mg/kg, group Mean",5.5
same,1 hour pan counts,"[2]; oral 0.25 mg/kg, individual animals",0
same,3 hour pan counts,"[2]; oral 0.25 mg/kg, individual animals, 0.25 mg/kg",2 and 9
same,Comb Count Day 1,"[2]; oral 0.25 mg/kg, live fleas, group Mean",0.0
same,Comb Count Day 1,"[2]; oral 0.25 mg/kg, live fleas, individual animals",0
same,# Live Fleas Removed,"[2]; oral 0.5 mg/kg, column after 4 hour pan counts, group Mean",22.7
same,# Live Fleas Removed,"[2]; oral 0.5 mg/kg, column after 4 hour pan counts, individual animals, 0.5 mg/kg",31 and 2 and 35
same,# Live Fleas Removed,"[2]; oral 0.5 mg/kg, column after 6 hour pan counts, group Mean",0.0
same,# Live Fleas Removed,"[2]; oral 0.5 mg/kg, column after 6 hour pan counts, individual animals",0
same,Mean Efficacy,[2]; oral 0.5 mg/kg,100.0
same,4 hour pan counts,"[2]; oral 0.5 mg/kg, group Mean",0.0
same,6 hour pan counts,"[2]; oral 0.5 mg/kg, group Mean",39.7
same,4 hour pan counts,[2]; [5],5 and 45 and 15
same,6 hour pan counts,[2]; [5],39 and 33 and 47
same,# Live Fleas Removed,"[2]; oral 1.0 mg/kg, column after 4 hour pan counts, group Mean",9.0
same,# Live Fleas Removed,"[2]; oral 1.0 mg/kg, column after 4 hour pan counts, individual animals, 1 mg/kg",4 and 12 and 11
same,# Live Fleas Removed,"[2]; oral 1.0 mg/kg, column after 6 hour pan counts, group Mean",0.0
same,# Live Fleas Removed,"[2]; oral 1.0 mg/kg, column after 6 hour pan counts, individual animals",0
same,Mean Efficacy,[2]; oral 1.0 mg/kg,100.0
same,4 hour pan counts,"[2]; oral 1.0 mg/kg, group Mean",41.7
same,6 hour pan counts,"[2]; oral 1.0 mg/kg, group Mean",44.0
same,4 hour pan counts,[2]; [6],44 and 41 and 40
same,6 hour pan counts,[2]; [6],35 and 44 and 53
same,"Efficacy, Comb Count Day 2 (reinfested)",[2]; oral 3.0 mg/kg single dose,68.1
same,"Efficacy, Comb Count Day 5 (reinfested)",[2]; oral 3.0 mg/kg single dose,42.1
same,Comb Count Day 2 (reinfested),[2]; [7],22.3
same,Comb Count Day 5 (reinfested),[2]; [7],25.3
same,Comb Count Day 2 (reinfested),[2]; [8],15 and 40 and 12
same,Comb Count Day 5 (reinfested),[2]; [8],32 and 80 and 42
same,"Efficacy, Comb Count Day 1",[2]; oral 3.0 mg/kg,100.0
same,Average 1 hour pan counts,"[2]; oral 3.0 mg/kg, group Mean",1.3
same,Average 3 hour pan counts,"[2]; oral 3.0 mg/kg, group Mean",9.0
same,Comb Count Day 1,"[2]; oral 3.0 mg/kg, group Mean",0.0
same,Comb Count Day 1,"[2]; oral 3.0 mg/kg, individual animals",0
same,Average 1 hour pan counts,[2]; [9],2 and 1 (2×)
same,Average 3 hour pan counts,[2]; [9],7 and 9 and 11
same,"Efficacy, Comb Count Day 2 (reinfested)",[2]; oral 6.0 mg/kg single dose,100.0
same,"Efficacy, Comb Count Day 5 (reinfested)",[2]; oral 6.0 mg/kg single dose,79.3
same,Comb Count Day 2 (reinfested),[2]; [10],0.0
same,Comb Count Day 5 (reinfested),[2]; [10],12.1
same,Comb Count Day 2 (reinfested),"[2]; oral 6.0 mg/kg single dose, individual animals",0
same,Comb Count Day 5 (reinfested),"[2]; oral 6.0 mg/kg single dose, individual animals, 6 mg/kg",7 and 17 and 31
same,"Efficacy, Comb Count Day 1",[2]; oral 6.0 mg/kg,100.0
same,Average 1 hour pan counts,"[2]; oral 6.0 mg/kg, group Mean",7.6
same,Average 3 hour pan counts,"[2]; oral 6.0 mg/kg, group Mean",19.6
same,Comb Count Day 1,"[2]; oral 6.0 mg/kg, group Mean",0.0
same,Comb Count Day 1,"[2]; oral 6.0 mg/kg, individual animals",0
same,Average 1 hour pan counts,[2]; [11],5 and 6 and 12
same,Average 3 hour pan counts,[2]; [11],13 and 22 and 27
same,"Efficacy, Comb Count Day 2 (reinfested)",[2]; oral 10.0 mg/kg single dose,100.0
same,"Efficacy, Comb Count Day 5 (reinfested)",[2]; oral 10.0 mg/kg single dose,97.7
same,Comb Count Day 2 (reinfested),[2]; [12],0.0
same,Comb Count Day 5 (reinfested),[2]; [12],2.0
same,Comb Count Day 2 (reinfested),"[2]; oral 10.0 mg/kg single dose, individual animals",0
same,Comb Count Day 5 (reinfested),"[2]; oral 10.0 mg/kg single dose, individual animals, 10 mg/kg",0 and 5 and 1
same,"Efficacy, Comb Count Day 1",[2]; oral 10.0 mg/kg,100.0
same,Average 1 hour pan counts,"[2]; oral 10.0 mg/kg, group Mean",11.3
same,Average 3 hour pan counts,"[2]; oral 10.0 mg/kg, group Mean",19.0
same,Comb Count Day 1,"[2]; oral 10.0 mg/kg, group Mean",0.0
same,Comb Count Day 1,"[2]; oral 10.0 mg/kg, individual animals",0
same,Average 1 hour pan counts,[2]; [13],10 and 16 and 8
same,Average 3 hour pan counts,[2]; [13],14 and 25 and 18
same,efficacious against pre-existing C. felis infestations,[2]; orally dosed at a rate as low as 0.25 mg/kg,100%
same,effective against a flea infestation on treated animals,"[2]; single oral dose 0.25 mg/kg, within as little as an hour of administration",100%
same,Attached Dead Day 2,"[3]; oral 3 mg/kg, group Mean",1
same,Dead Attached Day 6,"[3]; oral 3 mg/kg, group Mean",0
same,Dead Free Day 6,"[3]; oral 3 mg/kg, group Mean",0.0
same,Live Attached Day 6,"[3]; oral 3 mg/kg, group Mean",8
same,Live Free Day 6,"[3]; oral 3 mg/kg, group Mean",0
same,Ticks Removed Day 2,"[3]; oral 3 mg/kg, group Mean",18
same,Dead Free Day 6,"[3]; oral 3 mg/kg, individual animals",0
same,Attached Dead Day 2,[3]; [14],1 (2×) and 0
same,Dead Attached Day 6,[3]; [14],2 (2×) and 0
same,Live Attached Day 6,[3]; [14],6 and 4 and 13
same,Live Free Day 6,[3]; [14],1 and 0 (2×)
same,Ticks Removed Day 2,[3]; [14],17 and 8 and 28
same,Mean Efficacy,"[3]; oral 3 mg/kg, Day 2",15.9
same,Efficacy,[3]; oral 3 mg/kg,61.0
same,Attached Dead Day 2,"[3]; oral 10 mg/kg, group Mean",3
same,Dead Attached Day 6,"[3]; oral 10 mg/kg, group Mean",0
same,Dead Free Day 6,"[3]; oral 10 mg/kg, group Mean",0
same,Live Attached Day 6,"[3]; oral 10 mg/kg, group Mean",17
same,Live Free Day 6,"[3]; oral 10 mg/kg, group Mean",0
same,Ticks Removed Day 2,"[3]; oral 10 mg/kg, group Mean",20
same,Dead Free Day 6,"[3]; oral 10 mg/kg, individual animals",0
same,Attached Dead Day 2,[3]; [15],2 and 0 and 6
same,Dead Attached Day 6,[3]; [15],1 and 0 (2×)
same,Live Attached Day 6,[3]; [15],14 and 8 and 28
same,Live Free Day 6,[3]; [15],1 and 0 (2×)
same,Ticks Removed Day 2,[3]; [15],16 and 22 and 23
same,Mean Efficacy,"[3]; oral 10 mg/kg, Day 2",3.2
same,Efficacy,[3]; oral 10 mg/kg,15.3
same,Dead Ticks,[3]; [16],1
same,Live Ticks,[3]; [16],15
same,Dead Ticks,[3]; [17],0 and 3 and 1
same,Live Ticks,[3]; [17],33 and 2 and 10
same,Mean Efficacy,"[3]; oral 15 mg/kg, Day 1",48.9
same,Dead Ticks,[3]; [18],1
same,Live Ticks,[3]; [18],9
same,Dead Ticks,[3]; [19],2 and 1 and 0
same,Live Ticks,[3]; [19],3 and 12 and 13
same,Mean Efficacy,"[3]; oral 22 mg/kg, Day 1",68.2
same,Dead Ticks,[3]; [20],2
same,Live Ticks,[3]; [20],11
same,Dead Ticks,[3]; [21],7 and 0 (2×)
same,Live Ticks,[3]; [21],10 and 12 and 11
same,Mean Efficacy,"[3]; oral 30 mg/kg, Day 1",62.5
same,Mean Efficacy,"[3]; oral 30 mg/kg, Day 3",79.5
same,Comb Count Day 3 Dead,"[3]; oral 30 mg/kg, group Mean",1
same,Comb Count Day 3 Live,"[3]; oral 30 mg/kg, group Mean",5
same,Hand Count Day 2,"[3]; oral 30 mg/kg, group Mean",9
same,Comb Count Day 3 Dead,[3]; [22],0 (2×) and 2
same,Comb Count Day 3 Live,[3]; [22],6 and 5 and 4
same,Hand Count Day 2,[3]; [22],8 and 13 and 7
same,effective against a tick infestation on treated animals,"[3]; single oral dose 3 mg/kg, within as little as 24-48 hours of administration",at least 60%
same,effect on ticks,[4],little or no effect on ticks
